For series [1], the system named is human MCF-7 breast tumors. Put plainly: MCF-7 xenograft tumor growth in OVX nude mice. Conditions: for growth of human MCF-7 breast tumors, % of initial growth: OVX nude mice, INH7 groups 5 mg/kg/day + E1 0.1 μg/mice/day, E1, E2 groups 0.1 μg/mice/day. Format: in vivo. An excerpt: FIG. 4—is an illustration of the effect of various inhibitors of 17 β-HSD1 (INH7-10 and INH7-464) on the growth of human MCF-7 breast tumors in nude mice over a period of 22 days; illustration of the regression of MCF-7 xenograft tumor growth in OVX nude mice (cf. Table 1). The growth regression curves represent the decrease in tumor volume in response to INH7 (INH7-10 and INH7-464) treatment (Groups 4 and 5). […] Tumor volume=0.52×(length×width^2). Statistical significance by one-way ANOVA assay is shown by **P<0.01.
(§1) Female athymic nude mice (4 weeks) were ovariectomized under isoflurane-induced anesthesia. One week after ovariectomy (OVX), 5×10^6 MCF-7 cells or 10×10^6 T47D cells suspended in a […] mixture of Matrigel (BD)/culture medium (50:50) were administered by s.c. injection on both side of each mice. All mice were supplemented by daily s.c. injection 0.1 μg Estradiol (E2) for 5 weeks. […] The animals were euthanized on day 23, followed by the collection of tumor specimens and blood samples. The estrogen-sensitive organs (uterus and vagina), liver and kidney were removed and excised of fat and weighed. Tumor specimens were photographed and weighed.
A general note: A xenograft is tissue or cells of one species grown in another, often human tumour cells in immunodeficient mice.

The next series deals with human T47D breast tumors. Put plainly: T47D xenograft tumor growth in OVX nude mice. The format is in vivo. Conditions: for growth of human T47D breast tumors, % of initial growth: OVX nude mice, INH7 groups 5 mg/kg/day + E1 0.1 μg/mice/day, E1, E2 groups 0.1 μg/mice/day.
Description: FIG. 5—is an illustration of the effect of various inhibitors of 17 β-HSD1 (INH7-10 and INH7-464) on the growth of human T47D breast tumors in nude mice over a period of 22 days; illustration of the regression of T47D xenograft tumor growth in OVX nude mice by (cf. Table 2). The growth regression curves represent the decrease in tumor volume in response to INH7 (INH7-10 and INH7-464) treatment (Groups 4 and 5). […] Statistical significance by one-way ANOVA assay is shown by **P<0.01.
as §1

A short description of series [2]: Cytotoxicity on the MCF-7 cell line. Format: cell-based. Conditions: human, MCF-7 cells; incubation time 3 days; 1 nM-100 μM. On the procedure:
(§2) FIG. 9A—is an illustration of the cytotoxicity of the INH7-464 inhibitor on the MCF-7 cell line. FIG. 9B—is an illustration of the cytotoxicity of the INH7-464 inhibitor on the MCF-10A cell line. Paclitaxel (PTX) was used as the reference compound and was dissolved in DMSO for the stock solutions. The stock solutions were subsequently diluted at multiple concentrations with culture media in order to obtain the final desired concentrations ranging between 1 nM-100 μM. The incubation time was 3 days. The IC50 values (at which 50% of cell growth inhibition—concentration that inhibits 50% of cell proliferation—is observed) were calculated using an iterative least square regression method (cf. Table 3). The cytotoxicity values for the INH7-464 inhibitor were lower than those for Paclitaxel (PTX) in the different cell lines (cf. Table 3).
(§3) Paclitaxel (PTX) was used as a reference compound and was dissolved in DMSO for the stock solutions. The stock solutions were subsequently diluted at multiple concentrations with culture media in order to obtain the final desired concentrations ranging from 1 nM-100 μM. The incubation time was 3 days. The IC50 values (at which 50% of cell growth inhibition—concentration that inhibits 50% of cell proliferation—is observed) were calculated using an iterative least square regression method.

Series [3] in a line: Cytotoxicity on the MCF-10A cell line. The following applies: human, MCF-10A cells; incubation time 3 days; 1 nM-100 μM. Format: cell-based. As to the method:
as §2, §3

A further series relates to MCF-7 cell proliferation. Kind of series: Effect of INH7 inhibitors on MCF-7 cell proliferation (DNA synthesis, 144 hours, E1 0.1 nM). The following applies: 2 μM. Format: cell-based, human. On the procedure: FIG. 1—is an illustration of the effect of various inhibitors of […] (INH7-10, INH7-81 and INH7-464) on MCF-7 cell proliferation over a period of 144 hours.
The effects of various inhibitors, including INH7-464, on MCF-7 cell proliferation over a period of 144 hours is illustrated in FIG. 1. The hormone source E1 (Estrone) was provided at 0.1 nM. Data are reported as % of DNA synthesis vs Control (0.1 nM E1) (100%). Quadruple wells were used for each condition and repeated in three independent experiments. Error bars represent SD. *, P<0.05 vs control; **, P<0.001 vs. control by Student's test.

Series [4] is described as follows: Toxicity of INH7-464 in mice, weekly s.c. injection over 21 days. Format: in vivo. As to the method: FIG. 10—is an illustration of the toxicity of the INH7-464 inhibitor in mice (8 mice/group) at various concentrations over a period of 21 days. Control Group: 0.4% methylcellulose/DMSO (92/8). INH7-464 group: Day 1: 20 mg/kg (INH7-464); Day 8: 30 mg/kg (INH7-464); Day 15: 60 mg/kg (INH7-464). […] Statistical significance by T-test is shown by ***P<0.001.
FIG. 11—is an illustration of the effect (toxicity) of the INH7-464 inhibitor on the liver, kidney, ovary and uterus weight, as per the toxicity experiment illustrated in FIG. 10.
INH7-464 was administered by s.c. injection. INH7-464 was first dissolved in DMSO, followed by the addition of 0.4% methylcellulose to obtain a final 8% concentration of co-solvent (methylcellulose/DMSO (92/8). The injected volume was 0.1 mL (s.c.). […] All the mice were weighed every day. The liver, kidney, ovaries, and uterus were collected and weighed following 3 weeks of treatment.

The nature of series [5]: Body weight of nude mice during treatment of MCF-7 and T47D tumors. Format: in vivo. The following applies: MCF-7 and T47D tumor-bearing nude mice; 22 days; 5 mg/kg/day.
Description: FIG. 6A—is an illustration of the body weight of the nude mice following treatment of human MCF-7 and T47D breast tumors with INH7-47 over a period of 22 days. […] (FIG. 6B) is an illustration of the body weight of the OVX nude mice (mice having undergone an ovariectomy) over a period of 22 days. The OVX mice were not treated with an INH7 inhibitor, but instead were subjected to daily subcutaneous (s.c.) injection with vehicle (0.4% methylcellulose/DMSO (92/8)).
as §1

The structures appear in SMILES notation.

Regarding `C[C@]12CC[C@@H]3c4ccc(O)cc4CC[C@H]3[C@@H]1CCC2=O` [E1, Estrone], the “growth of human MCF-7 breast tumors, % of initial growth” value in series [1] (day 0) is on record as 100%; in series [1] (day 5), 102.886%; in series [1] (day 9) it was 100.227%; in series [1] (day 12), 109.033%; in series [1] (day 13), 95.3089%; in series [1] (day 19), 100.249%. Besides, in series [1] (day 22), the “growth of human MCF-7 breast tumors, % of initial growth” value was found to be 102.648%. Further, the “growth of human T47D breast tumors, % of initial growth” value with human T47D breast tumors (day 0) is reported as 100%; in the series on human T47D breast tumors (day 5), 93.64%; in the series with human T47D breast tumors (day 9), 113.43%; with human T47D breast tumors (day 12) it was 112.0519%; in the series on human T47D breast tumors (day 15), 122.0034%; in the series on human T47D breast tumors (day 19), 112.9356%. Besides, in the series with human T47D breast tumors (day 22), the “growth of human T47D breast tumors, % of initial growth” value was 112.831%.

Consider `C[C@]12CC[C@@H]3c4ccc(O)cc4CC[C@H]3[C@@H]1CC[C@@H]2O` [E2, Estradiol], for which the “growth of human MCF-7 breast tumors, % of initial growth” value was 100% in series [1] (day 0); 82.8535% in series [1] (day 5); 97.2662% in series [1] (day 9); 131.541% in series [1] (day 12); 123.252% in series [1] (day 13); 108.413% in series [1] (day 19). For the same molecule, the “growth of human MCF-7 breast tumors, % of initial growth” value in series [1] (day 22) was 120.974%. Also, the “growth of human T47D breast tumors, % of initial growth” value is 100% in the series on human T47D breast tumors (day 0); 112.55% in the series on human T47D breast tumors (day 5); 120.84% in the series on human T47D breast tumors (day 9); 121.306% in the series with human T47D breast tumors (day 12); 150.417% with human T47D breast tumors (day 15); 144.117% in the series on human T47D breast tumors (day 19). Also, the “growth of human T47D breast tumors, % of initial growth” value in the series with human T47D breast tumors (day 22) was determined as 138.919%.

`CC(=O)O[C@H]1C(=O)[C@@]2(C)[C@H]([C@H](OC(=O)c3ccccc3)[C@]3(O)C[C@H](OC(=O)[C@H](O)[C@@H](NC(=O)c4ccccc4)c4ccccc4)C(C)=C1C3(C)C)[C@]1(OC(C)=O)CO[C@@H]1C[C@@H]2O` [Paclitaxel (PTX), Paclitaxel]: the IC50 at 3 days in series [2] amounted to 3.08 nM; in series [3], 0.637 nM.

`CCCCCCCCCN1C[C@]2(CC[C@H]3[C@@H]4CC[C@H]5NC(=O)CC[C@]5(C)[C@H]4CC[C@@]32C)OC1=O` [INH7-464, (4aR,4bS,6aS,7R,9aS,9bR,11aR)-4a,6a-dimethyl-3′-nonyltetradecahydrospiro [indeno[5,4-f]quinoline-7,5′-oxazolidine]-2,2′(1H)-dione]: in the series with MCF-7 cell proliferation, the “inhibition of MCF-7 cell proliferation (% of DNA synthesis vs control 0.1 nM E1)” value is recorded as “significant inhibition at 2 μM”. The “decrease in the tumor size relative to the control (E1)” value in series [1] (MCF-7 xenograft model, day 22, 5 mg/kg/day) is reported as 60%±5%; in the series with human T47D breast tumors (T47D xenograft model, day 22, 5 mg/kg/day), 51%±5%. The “growth of human MCF-7 breast tumors, % of initial growth” value in series [1] (day 0) is 100%; in series [1] (day 5), 88.1406%; in series [1] (day 9), 81.8741%; in series [1] (day 12), 84.2617%; in series [1] (day 13) it was 66.5956%; in series [1] (day 19), 67.8843%. In addition, the “growth of human MCF-7 breast tumors, % of initial growth” value in series [1] (day 22) stood at 59.6876%. Besides, the “growth of human T47D breast tumors, % of initial growth” value in the series with human T47D breast tumors (day 0) came to 100%; in the series with human T47D breast tumors (day 5), 100.51%; in the series on human T47D breast tumors (day 9) it was 78.1158%; with human T47D breast tumors (day 12), 76.9139%; with human T47D breast tumors (day 15), 63.5165%; with human T47D breast tumors (day 19), 67.9195%. The “growth of human T47D breast tumors, % of initial growth” value with human T47D breast tumors (day 22) is on record as 50.9558%. Also, the figures for the IC50 at 3 days in series [2] and in series [3] were 582 nM and 2670 nM, respectively. Further, in series [4] (8/group, 20-60 mg/kg weekly s.c. for 3 weeks (21 days)), the “tolerability after weekly subcutaneous injection” value is given as “very well tolerated”. The apparent toxicity result in series [4] (20-60 mg/kg weekly (s.c.)) is “no apparent toxicity”. Besides, the “weight changes of liver, kidney, ovary and uterus” value in series [4] (after 3 weeks of weekly s.c. 20, 30 and 60 mg/kg) is “no significant weight changes”. For the same molecule, the “body weight of the nude mice” value in series [5] is listed as “absence of weight loss”.

What is called IC50 is the concentration that inhibits the measured activity by half. High values mean lower potency, low ones higher potency.

Source of the values: patent US12662509B2, “Inhibitors of 17β-HSD7 and uses thereof” (UNIVERSITÉ LAVAL, priority 2021, dated 2026).
